In US10934274B2, “Quinoline derivatives as TAM RTK inhibitors” (Qurient Co., Ltd., priority 2015, dated 2021):

Tests used:
Mer = biological target: T1, Mer (Homo sapiens, UniProt Q12866); assay: LanthaScreen Eu kinase binding assay, Mer; conditions: Tracer 236
T1 construct: purchased Life Technologies
T1 sequence (Q12866 21-999): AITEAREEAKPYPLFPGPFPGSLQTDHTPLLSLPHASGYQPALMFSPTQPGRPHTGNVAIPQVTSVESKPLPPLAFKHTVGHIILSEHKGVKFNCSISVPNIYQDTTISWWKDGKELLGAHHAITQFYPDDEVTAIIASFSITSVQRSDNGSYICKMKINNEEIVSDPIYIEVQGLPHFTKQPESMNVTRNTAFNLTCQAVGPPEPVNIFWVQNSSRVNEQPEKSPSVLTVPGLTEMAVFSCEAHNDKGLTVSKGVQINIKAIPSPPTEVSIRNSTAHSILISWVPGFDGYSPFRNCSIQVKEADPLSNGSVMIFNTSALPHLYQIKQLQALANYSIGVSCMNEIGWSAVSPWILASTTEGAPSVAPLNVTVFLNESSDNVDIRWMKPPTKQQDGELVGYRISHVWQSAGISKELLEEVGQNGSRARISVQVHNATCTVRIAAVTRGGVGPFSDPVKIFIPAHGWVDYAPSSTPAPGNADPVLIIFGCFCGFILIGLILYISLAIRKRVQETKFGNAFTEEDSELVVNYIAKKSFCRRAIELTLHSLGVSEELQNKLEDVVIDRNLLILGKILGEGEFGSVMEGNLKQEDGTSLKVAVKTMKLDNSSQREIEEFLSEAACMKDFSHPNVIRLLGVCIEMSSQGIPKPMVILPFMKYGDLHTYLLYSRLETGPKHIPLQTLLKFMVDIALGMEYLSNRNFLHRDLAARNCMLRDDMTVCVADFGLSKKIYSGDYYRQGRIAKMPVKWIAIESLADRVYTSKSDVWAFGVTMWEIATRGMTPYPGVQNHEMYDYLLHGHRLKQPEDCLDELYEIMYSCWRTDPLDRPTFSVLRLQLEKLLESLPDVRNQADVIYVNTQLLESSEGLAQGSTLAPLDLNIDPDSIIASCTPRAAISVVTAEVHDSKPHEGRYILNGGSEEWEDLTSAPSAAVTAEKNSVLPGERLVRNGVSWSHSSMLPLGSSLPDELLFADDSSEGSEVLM

Met = biological target: T2, Met (Homo sapiens, UniProt P08581); assay: LanthaScreen Eu kinase binding assay, Met; conditions: Tracer 236, read-out: cMet kinase binding activity (Kd)
T2 construct: purchased Life Technologies

[1] = tested on: Axl phosphorylation in transiently transfected HEK293T cells; assay: Cellular Axl phosphorylation assay; format: cell-based; conditions: Homo sapiens, HEK-293T; HEK293T cells transfected with Axl, 1 hour compound treatment, Phospho-Axl vs Total-Axl
Summary of the method: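 HEK293T cells transiently transfected with Axl (empty pcDNA_DEST_40 vector as minimum control) were treated with compound in DMSO for 1 h, then lysed. Total and phospho-Axl in lysates were measured by Mesoscale electrochemiluminescence immunoassay. IC50 was taken relative to the DMSO vehicle and empty-vector controls.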

T2 sequence (P08581 25-1390): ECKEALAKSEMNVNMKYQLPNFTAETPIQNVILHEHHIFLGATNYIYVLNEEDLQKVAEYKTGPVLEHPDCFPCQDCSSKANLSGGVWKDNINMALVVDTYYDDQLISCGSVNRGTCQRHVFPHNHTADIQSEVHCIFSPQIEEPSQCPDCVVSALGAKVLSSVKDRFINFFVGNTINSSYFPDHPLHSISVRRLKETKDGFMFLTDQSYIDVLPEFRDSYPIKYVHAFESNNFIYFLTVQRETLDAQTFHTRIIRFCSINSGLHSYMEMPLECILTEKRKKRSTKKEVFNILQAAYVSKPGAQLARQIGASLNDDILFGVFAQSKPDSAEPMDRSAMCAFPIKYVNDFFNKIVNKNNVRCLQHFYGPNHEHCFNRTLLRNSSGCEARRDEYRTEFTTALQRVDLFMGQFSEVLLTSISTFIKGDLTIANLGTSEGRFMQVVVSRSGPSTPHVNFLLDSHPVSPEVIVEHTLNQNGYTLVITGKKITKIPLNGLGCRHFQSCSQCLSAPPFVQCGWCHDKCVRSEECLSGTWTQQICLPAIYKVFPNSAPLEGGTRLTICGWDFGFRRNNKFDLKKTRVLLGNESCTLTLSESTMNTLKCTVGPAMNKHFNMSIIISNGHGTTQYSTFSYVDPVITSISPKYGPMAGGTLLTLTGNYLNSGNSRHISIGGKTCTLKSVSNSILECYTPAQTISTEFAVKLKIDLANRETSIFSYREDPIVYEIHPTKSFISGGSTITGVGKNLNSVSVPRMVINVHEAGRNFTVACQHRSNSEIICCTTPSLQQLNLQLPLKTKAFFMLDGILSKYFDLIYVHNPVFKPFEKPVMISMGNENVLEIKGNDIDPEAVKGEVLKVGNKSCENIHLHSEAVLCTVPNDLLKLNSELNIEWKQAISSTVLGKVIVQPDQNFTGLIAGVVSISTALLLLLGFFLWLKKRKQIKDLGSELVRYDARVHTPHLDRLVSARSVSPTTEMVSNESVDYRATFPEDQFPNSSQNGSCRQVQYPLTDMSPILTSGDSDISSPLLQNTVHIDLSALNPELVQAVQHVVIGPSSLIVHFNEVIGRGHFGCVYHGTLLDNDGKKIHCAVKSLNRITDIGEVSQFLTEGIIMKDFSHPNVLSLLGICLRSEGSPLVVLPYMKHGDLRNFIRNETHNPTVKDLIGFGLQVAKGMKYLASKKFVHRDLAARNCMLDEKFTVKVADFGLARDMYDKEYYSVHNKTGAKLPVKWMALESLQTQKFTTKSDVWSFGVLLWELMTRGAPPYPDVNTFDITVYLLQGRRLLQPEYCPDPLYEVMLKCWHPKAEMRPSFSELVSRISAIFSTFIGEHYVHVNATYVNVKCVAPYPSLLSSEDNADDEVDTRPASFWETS

SMILES	Kd (Mer) [µM]	Kd (Met) [µM]	IC50 [1] [µM]
CCOc1cn(CCOC)nc1C(=O)Nc1ccc(Oc2ccnc3cc(OC)c(OC)cc23)cn1 [Compound 64]	< 0.1	< 0.1	< 0.1
CCOc1cn(C)nc1C(=O)Nc1ccc(Oc2ccnc3cc(OC)c(OC)cc23)cn1 [Compound 29]	< 0.1	0.1 to 1	0.1 to 1
CCOc1cn(-c2ncco2)nc1C(=O)Nc1ccc(Oc2ccnc3cc(OC)c(OC)cc23)cn1 [Compound 59]	< 0.1	< 0.1	< 0.1
CCOc1cn(CC2CCO2)nc1C(=O)Nc1ccc(Oc2ccnc3cc(OC)c(OC)cc23)cn1 (stereo not drawn) [Compound 48]	< 0.1	0.1 to 1	< 0.1
CCOc1cnn(-c2ccco2)c1C(=O)Nc1ccc(Oc2ccnc3cc(OC)c(OC)cc23)cn1 [Compound 58]	0.1 to 1	0.1 to 1	< 0.1
CCOc1cn(-c2ccnnc2)nc1C(=O)Nc1ccc(Oc2ccnc3cc(OC)c(OC)cc23)cn1 [Compound 40]	< 0.1	< 0.1	0.1 to 1
CCOc1cn(-c2ccsc2)nc1C(=O)Nc1ccc(Oc2ccnc3cc(OC)c(OC)cc23)cn1 [Compound 18]	< 0.1	0.1 to 1	< 0.1
CCC(C)Oc1cc2nccc(Oc3ccc(NC(=O)c4nn(-c5cccnc5)cc4OCC(F)(F)F)nc3)c2cc1OC (stereo not drawn) [Compound 234]	< 0.1	0.1 to 1	< 0.1
CCOc1cn(-c2ccncc2Cl)nc1C(=O)Nc1ccc(Oc2ccnc3cc(OC)c(OC)cc23)cn1 [Compound 26]	< 0.1	< 0.1	< 0.1
CCOc1cn(-c2ccn(C)c2)nc1C(=O)Nc1ccc(Oc2ccnc3cc(OC)c(OC)cc23)cn1 [Compound 56]	< 0.1	< 0.1	< 0.1
CCOc1cn(-c2ccc(C#N)cn2)nc1C(=O)Nc1ccc(Oc2ccnc3cc(OC)c(OC)cc23)cn1 [Compound 43]	≥ 1	≥ 1	≥ 1
CCOc1cn(CCOC(F)(F)F)nc1C(=O)Nc1ccc(Oc2ccnc3cc(OC)c(OC)cc23)cn1 [Compound 38]	< 0.1	< 0.1	< 0.1
CCOc1cn(C(C)(C)C(=O)NC)nc1C(=O)Nc1ccc(Oc2ccnc3cc(OC)c(OC)cc23)cn1 [Compound 68]	< 0.1	0.1 to 1	< 0.1
CCOc1sc(-c2cccnc2)nc1C(=O)Nc1ccc(Oc2ccnc3cc(OC)c(OC)cc23)cn1 [Compound 45]	< 0.1	< 0.1	< 0.1
CCOc1cn(-c2cnccc2C(C)(O)CO)nc1C(=O)Nc1ccc(Oc2ccnc3cc(OC)c(OC)cc23)cc1F (stereo not drawn) [Compound 227]	< 0.1	< 0.1	< 0.1
CCOc1cnn(C2CCCN(C)C2)c1C(=O)Nc1ccc(Oc2ccnc3cc(OC)c(OC)cc23)cc1F (stereo not drawn) [Compound 213]	0.1 to 1	≥ 1	0.1 to 1
CCOc1cn(-c2cccs2)nc1C(=O)Nc1ccc(Oc2ccnc3cc(OC)c(OC)cc23)cn1 [Compound 17]	< 0.1	< 0.1	< 0.1
CCOc1cnn(-c2cccs2)c1C(=O)Nc1ccc(Oc2ccnc3cc(OC)c(OC)cc23)cn1 [Compound 20]	0.1 to 1	0.1 to 1	< 0.1
CCOc1cn(Cc2cnccn2)nc1C(=O)Nc1ccc(Oc2ccnc3cc(OC)c(OC)cc23)cc1F [Compound 215]	< 0.1	< 0.1	< 0.1
CCOc1cnn(-c2ccsc2)c1C(=O)Nc1ccc(Oc2ccnc3cc(OC)c(OC)cc23)cn1 [Compound 21]	0.1 to 1	0.1 to 1	< 0.1
CCOc1cn(-c2cnccn2)nc1C(=O)Nc1ccc(Oc2ccnc3cc(OC)c(OC)cc23)cn1 [Compound 36]	< 0.1	< 0.1	< 0.1
CCOc1cn(C2CCCN(C(C)=O)C2)nc1C(=O)Nc1ccc(Oc2ccnc3cc(OC)c(OC)cc23)cc1F (stereo not drawn) [Compound 224]	< 0.1	0.1 to 1	< 0.1
CCOc1cn(-c2cccnc2C)nc1C(=O)Nc1ccc(Oc2ccnc3cc(OC)c(OC)cc23)cn1 [Compound 23]	< 0.1	< 0.1	< 0.1
CCOc1cn(C2CCN(C)C2)nc1C(=O)Nc1ccc(Oc2ccnc3cc(OC)c(OC)cc23)cc1F (stereo not drawn) [Compound 212]	0.1 to 1	0.1 to 1	< 0.1
CCOc1cn(-c2cnccc2CCCN(C)C)nc1C(=O)Nc1ccc(Oc2ccnc3cc(OC)c(OC)cc23)cn1 [Compound 61]	< 0.1	< 0.1	< 0.1
CCOc1cn(-c2ccc(N(C)C)cc2Cl)nc1C(=O)Nc1ccc(Oc2ccnc3cc(OC)c(OC)cc23)cn1 [Compound 31]	< 0.1	0.1 to 1	< 0.1

Second part, led by results:

Kd (Mer) [µM]	Kd (Met) [µM]	SMILES	IC50 [1] [µM]
< 0.1	< 0.1	COc1cc2nccc(Oc3ccc(NC(=O)c4nn(-c5ccc(F)cc5F)cc4OCC4CC4)nc3)c2cc1OC [Compound 267]	< 0.1
< 0.1	< 0.1	COc1cc2nccc(Oc3ccc(NC(=O)c4nn(-c5cnccc5C(F)(F)F)cc4OCC4CC4)nc3)c2cc1OC [Compound 247]	< 0.1
< 0.1	≥ 1	COc1cc2c(Oc3ccc(NC(=O)c4nn(-c5cnc(N)cn5)cc4OCC(F)(F)F)c(F)c3)ccnc2cc1OC(C)C [Compound 246]	< 0.1
< 0.1	≥ 1	COc1cc2nccc(Oc3ccc(NC(=O)c4nn(-c5cnc(N)cn5)cc4OCC(F)(F)F)c(F)c3)c2cc1OC [Compound 252]	< 0.1
< 0.1	< 0.1	COc1cc2nccc(Oc3ccc(NC(=O)c4nn(-c5cnc(N)nc5)cc4OCC4CCC4)nc3)c2cc1OC [Compound 262]	< 0.1
< 0.1	≥ 1	CCOc1cn(-c2cnc(N)nc2)nc1C(=O)Nc1ccc(Oc2ccnc3cc(OC)c(OC(F)(F)F)cc23)cn1 [Compound 241]	< 0.1
< 0.1	< 0.1	COc1cc2nccc(Oc3ccc(NC(=O)c4nn(-c5cnc(N)cn5)cc4OCC(F)(F)F)nc3)c2cc1OC [Compound 248]	< 0.1
< 0.1	< 0.1	COc1cc2nccc(Oc3ccc(NC(=O)c4nn(-c5ccc(F)cc5N5CCOCC5)cc4OCC4CC4)nc3)c2cc1OC [Compound 266]	< 0.1
< 0.1	< 0.1	COc1cc2nccc(Oc3ccc(NC(=O)c4nn(-c5cncnc5C5CC5)cc4OCC(F)(F)F)nc3)c2cc1OC [Compound 261]	< 0.1
< 0.1	< 0.1	COc1cc2nccc(Oc3ccc(NC(=O)c4nn(-c5ccc(F)c(C(C)=O)c5)cc4OCC4CC4)nc3)c2cc1OC [Compound 274]	< 0.1
< 0.1	< 0.1	COc1cc2nccc(Oc3ccc(NC(=O)c4nn(-c5cccnc5)cc4OCC4CC4)nc3)c2cc1OC [Compound 255]	< 0.1
< 0.1	< 0.1	COc1cc2c(Oc3ccc(NC(=O)c4nn(-c5cnc(N)nc5)cc4OCC(F)(F)F)nc3)ccnc2cc1OC(C)C [Compound 257]	< 0.1
< 0.1	< 0.1	COc1cc2nccc(Oc3ccc(NC(=O)c4nn(-c5ccc(OC(F)(F)F)cc5Cl)cc4OCC4CC4)nc3)c2cc1OC [Compound 244]	< 0.1
< 0.1	< 0.1	COc1cc2nccc(Oc3ccc(NC(=O)c4nn(-c5cnc(N)nc5)cc4OCC(F)(F)F)nc3)c2cc1OC [Compound 237]	< 0.1
< 0.1	< 0.1	COc1cc2c(Oc3ccc(NC(=O)c4nn(-c5cnc(N)nc5)cc4OCC(F)(F)F)c(F)c3)ccnc2cc1OC(C)C [Compound 243]	< 0.1
< 0.1	< 0.1	COc1cc2nccc(Oc3ccc(NC(=O)c4nn(-c5cnc(N)nc5)cc4OC(C)C)nc3)c2cc1OC [Compound 260]	< 0.1
< 0.1	< 0.1	COc1cc2nccc(Oc3ccc(NC(=O)c4nn(-c5cnc(N)cn5)cc4OCC4CC4)nc3)c2cc1OC [Compound 249]	< 0.1
